Data on one compound can be found in ChEMBL document CHEMBL1154581, “Polyhydroxylated sterols from the octocoral Dendronephthya gigantea” (J Nat Prod, 2000).

The test system of this assay is L1210. Put plainly: Cytotoxicity against mouse L1210 cells. The format is functional, cell-based.

In brackets after ≈: the same amount, converted by molar mass.

For orientation: IC50 means the concentration needed to halve the response being measured. Lower therefore signals inhibition by little substance.

For `CC(=O)OC[C@]12CC[C@H]3[C@@H](C[C@@H](O)[C@@]4(O)C[C@@H](O)CC[C@]34C)[C@@H]1[C@H](O)C[C@@H]2[C@H](C)CCCC(C)C` [DENDRONESTEROL B], it took 5.2 mg/L (≈ 10.5 µM) to reach half-maximal inhibition (IC50).
